According to patent US5236899A (Merck & Co., Inc., priority 1991, dated 1993):

Assays:
[1] = Nephrotoxicity in an in vivo mouse model; details: result in words
[2] = test system: MDR CHO cells (multidrug-resistant); test: Doxorubicin growth inhibition, methylene blue staining method, multidrug-resistant cells; format: cell-based, Chinese hamster; details: Cricetulus griseus, doxorubicin only, about 72 hours continuous exposure
Source text: Multidrug-resistant cells lines are easily obtainable for in vitro determination of drug sensitization by compounds of the present invention, as well as other compounds with similar activity. These cell lines include NIH-OVCAR-3 (ATCC HTB161)., which is commercially available. Other cell lines can be readily developed in accordance with the methods described by Twentyman et al., Br. J. Cancer, 54, 253 (1986). This procedure selects for multidrug-resistant cells by culturing the parental drug sensitive cell line in the continued presence of a cytotoxic drug, for example, doxorubicin.
Drug sensitive cells will perish while multidrug-resistant cells will survive and grow despite the presence of the drug. Eventually, a multidrug-resistant cell population emerges and can be used in an assay system for the detection of agents which can modify the multidrug-resistance. Many cell lines are suitable as parental cell lines from which multidrug-resistant cells can be selected. […]
Equal numbers of cells of an anchorage dependent mammalian cell line are seeded in growth medium (e.g. alpha MEM plus 10% FBS) into a suitable culture vessel, e.g. plastic 96 well tissue culture plates. […] The amount of methylene blue dye in the wells can be measured spectrophotometrically by measuring absorbance at 600 nm using an electronic ELISA plate spectrophotmeter (Minireader II, Dynatech Laboratories, Alexandria, VA). […]

[3] = test system: Parental CHO cells (Drug Sensitive); test: Doxorubicin growth inhibition, methylene blue staining method, parental drug-sensitive cells; format: cell-based, Chinese hamster; details: Cricetulus griseus, doxorubicin only, about 72 hours continuous exposure
Description: Equal numbers of cells of an anchorage dependent mammalian cell line are seeded in growth medium (e.g. alpha MEM plus 10% FBS) into a suitable culture vessel, e.g. plastic 96 well tissue culture plates. A cytotoxic drug (e.g. doxorubicin) is added to the cells in the dishes at various concentrations ranging between 0 and 100 uM. Following about 72 hours of continuous exposure to the cytotoxic agent, the growth medium is decanted and the cells are washed with a suitable buffer, e.g. phosphate buffered saline (PBS). About 2 ml of a solution of 2% methylene blue (dissolve methylene blue in a solution of about 50% ethanol in water) is added to the cells on the dishes. The dye is allowed to contact the cells for about 2 minutes. Excess dye is washed away with cold water and the plates are air dried. The dye stained cells are then solubilized by adding an equal volume to all wells of a solution of a detergent, e.g. 1% N-lauroyl-sarcosine. The amount of dye remaining in the wells directly correlates witht he number of cells in the well. The amount of methylene blue dye in the wells can be measured spectrophotometrically by measuring absorbance at 600 nm using an electronic ELISA plate spectrophotmeter (Minireader II, Dynatech Laboratories, Alexandria, VA). […]

Structure (SMILES) | Nephrotoxicity [1] | IC50 [2] [µM] | IC50 [3] [µM]
C/C=C/C[C@@H](C)[C@@H](O)[C@H]1C(=O)N[C@@H](CC)C(=O)N(C)CC(=O)N(C)[C@@H](CC(C)C)C(=O)N[C@@H](C(C)C)C(=O)N(C)[C@@H](CC)C(=O)N[C@@H](C)C(=O)N[C@H](C)C(=O)N(C)[C@@H](CC(C)C)C(=O)N(C)[C@@H](CC(C)C)C(=O)N(C)[C@@H](C(C)C)C(=O)N1C [6-MeAbu] | lack the nephrotoxic side effects | – | –
C/C=C/C[C@@H](C)[C@@H](O)[C@H]1C(=O)N[C@@H](CC)C(=O)N(C)CC(=O)N(C)[C@@H](CC(C)C)C(=O)N[C@@H](C(C)C)C(=O)N(C)[C@@H](C)C(=O)N[C@@H](C)C(=O)N[C@H](C)C(=O)N(C)[C@@H](CC(C)C)C(=O)N(C)[C@@H](CC(C)C)C(=O)N(C)[C@@H](C(C)C)C(=O)N1C [6-MeAla, Cyclo[-((2S,3R,4R,6E)-3-Hydroxy-4-methyl-2-methylamino-6-octenoyl)-L-2-aminobutyryl-sarcosyl-N-methyl-L-leucyl-Valyl-N-methyl-L-alanyl-L-alanyl-D-alanyl-N-methyl-L-leucyl-N-methyl-L-leucyl-N-methyl-L-valyl]] | lack the nephrotoxic side effects | – | –
COc1cccc2c1C(=O)c1c(O)c3c(c(O)c1C2=O)C[C@@](O)(C(=O)CO)C[C@@H]3O[C@H]1C[C@H](N)[C@H](O)[C@H](C)O1 [Doxorubicin, doxorubicin] | – | 11.3 ± 0.51 | 0.17 ± 0.01
